These molecules were tested on Pkd1−/− mouse inner medullary collecting duct cells (mIMRFNPKD 5E4) (assay: mPKD 3D cyst swelling assay (forskolin-induced)). Settings: 10 uM, after 72 hours of forskolin exposure.
Format: cell-based
Description: Cell model and control compounds. mIMCD3 WT cells were obtained via ATCC and modified to create the mIMRFNPKD 5E4 cell line, which has a CRISPR-Cas mediated knockout for Pkd1 as described SLAS Discov. 2017 September; 22(8):974-984. doi: 10.1177/2472555217716056. Cells were cultured in DMEM/F12 (Sigma)+10% FBS (Sigma)+0.5% Pen/Strep (Gibco)+1% GluMax (Gibco). Control compounds used were forskolin (Calbiochem, 344282), Rapamycin (Selleckchem, S1039) and Staurosporin (Selleckchem, S1421).
The 3D mouse cyst swelling assay was performed with Pkd1^−/− mouse inner medullary collecting duct cells (mIMRFNPKD 5E4). The cyst swelling protocol that was used was described previously (SLAS Discov. 2017 September; 22(8):974-984. doi: 10.1177/2472555217716056), with further optimization.
3D culture and compound exposure. mIMRFNPKD 5E4 cells were mixed with Cyst-Gel (OcellO BV). 15 μL of cell-gel mix was pipetted to 384-well plates (Greiner μClear, Greiner Bio-One B.V.) using a CyBio Felix 96/60 robotic liquid dispenser (Analyik Jena AG). Gel-cell mix was plated at a final cell density of 2250 cells per well. After gel polymerization at 37° C. for 30 minutes, 33 μL culture medium was added to each well. Cells were grown in the gel for 96 hours, after which the cells were co-exposed with forskolin (Calbiochem, 344282) and one the following molecules: reference compound Rapamycin (SelleckChem, S1039), toxic control compound Staurosporin (SelleckChem, S1421) or test compounds.
Sample processing. After 72 hours, cultures were fixed with 4% Formaldehyde (Sigma Aldrich) and simultaneously permeabilized with 0.2% Triton-X100 (Sigma Aldrich) and stained with 0.25 μM rhodamine-phalloidin (Sigma Aldrich) and 0.1% Hoechst 33258 (Sigma Aldrich) in 1×PBS (Sigma Aldrich) for 2 days at 4° C., protected from light. After fixation and staining, plates were washed with 1×PBS, sealed with a Greiner SilverSeal (Greiner Bio-One B.V.) and stored at 4° C. prior to imaging.
Imaging and image analysis. Imaging was done using Molecular Devices ImageXpress Micro XLS (Molecular Devices) with a 4× NIKON objective. For each well around 35 images in the Z-direction were made for both channels, capturing the whole z-plane in each image. Image analysis was performed using Ominer™ software (OcellO BV). Cysts were segmented using detection of Hoechst-stained nuclei and Rhodamine-phalloidin-stained cellular f-actin. Cyst area was determined by calculating for the area in px of each object in every in-focus plain. This was averaged per well. (N represented is number of wells) Fraction of apoptotic nuclei as an indicator of toxicity was calculated as the amount of nuclei without actin signal relative to the total amount of nuclei, both as count-measurements. Statistics was done using KNIME Analytics Platform (Konstanz, Germany, http://www.knime.org/), graphs were prepared in GraphPad Prism 6 (GraphPad Software, La Jolla, Calif.).

Structure (SMILES)	% prevention of forskolin-induced cyst swelling [%]
CC(C)(CO)[C@@H](O)C(=O)NCCC(=O)NCCSC(=O)CCCO [Compound 1304, (2R)-2,4-dihydroxy-N-[2-([2-[(4-hydroxybutanoyl)sulfanyl]ethyl]carbamoyl)ethyl]-3,3-dimethylbutanamide]	≥10
CC(C)(CO)[C@@H](O)C(=O)NCCC(=O)NCCSC(=O)C1CCC(=O)N1 (stereo partly drawn) [Compound 1227, S-2-{3-[(R)-2,4-dihydroxy-3,3-dimethylbutyrylamino]propionylamino}ethyl 5-oxo-2-pyrrolidinecarbothioate]	≥10

Same assay, conditions: 50 uM, after 72 hours of forskolin exposure

Structure (SMILES)	% prevention of forskolin-induced cyst swelling [%]
C[C@H](CC(=O)SCCNC(=O)CCNC(=O)[C@H](O)C(C)(C)CO)OC(=O)CCC(=O)O [Compound 1243, 4-{[(2R)-4-[(2-{3-[(2R)-2,4-dihydroxy-3,3-dimethylbutanamido]propanamido}ethyl)sulfanyl]-4-oxobutan-2-yl]oxy}-4-oxobutanoic acid]	≥10
COC(=O)CC(SCCNC(=O)CCNC(=O)[C@H](O)C(C)(C)COC(C)=O)C(=O)OC (stereo partly drawn) [Compound 149, 1,4-dimethyl 2-[(2-[3-[(2R)-4-(acetyloxy)-2-hydroxy-3,3-dimethylbutanamido]propanamido]ethyl)sulfanyl]butanedioate]	≥10

These molecules were tested on oligodendrocyte precursor cells (OPC) in mixed brain cultures (assay: Oligodendrocyte precursor cells (OPC) proliferation, O4+ cell count). Settings: 10 uM.
Format: cell-based, mouse
Description: The effect of compounds of the present disclosure was determined on oligodendrocyte precursor cells proliferation (OPC).
Cell culture. Brains of wild type mice (whole brain from 1 or 2 mouse pups) less than postnatal day (P) 2 were isolated and cultured. Briefly, following removal of the meninges, cells were dissociated with 0.25% EDTA/CMF-DMEM and 1% Trypsin (1:1), plated at a density of 75,000 cells/on 0.1 mg/ml poly-L-lysine coated borosilicate glass coverslips in 24-well plates, grown in OPC differentiation media (Oligo media) consisting of DMEM/F12 (Invitrogen 21331-020) supplemented with 1% FBS, 1% N2 Neural Supplement (Invitrogen 17502-048) and PDGF receptor alpha growth factor (Invitrogen 17502-048). Cells were fed every other day and allowed to grow for 7 days in vitro (DIV).
OPCs treatment with compounds of the present disclosure. Cells were treated with compounds of the present disclosure (50-10 μM) or vehicle (0.1% DMSO) starting at 7 DIV. Media was replaced daily with freshly made working solutions of compounds or vehicle for either 48 h (9 DIV total) or 96 h (11 DIV). The 48 h group consisted of 1 coverslip per condition. The 96 h group was treated in duplicate.
Fresh aliquots of compounds of the present disclosure were made up on the day of treatment, briefly, a 50 mM stock was thawed and used to make up fresh 50 μM working solution in Oligo Media. The fresh 50 μM working solution was diluted further in Oligo Media to make 10 μM working solution. Vehicle controls was made up in fresh Oligo Media using the appropriate amount of vehicle (DMSO). Coverslips were stored in clean 24-well plates at 4° C. until fixed-staining. Cells were imaged using Leica DM5500 fluorescent microscope with LAS-X software.
Exposure settings were maintained at the same rate across compounds of the same time-point. Cells were imaged at 20× and 40× magnifications. At least 5 images were taken per condition. Most conditions had at least 5 images that were counted. 20× images were utilized for counting DAPI (cell nuclei) and O4+ cells.
Total DAPI per image for all images was counted using ImageJ as here indicated. • Image was converted to 8 bit • Blue Channel (DAPI) was automatically thresholded by default ImageJ settings • Image noise was reduced by ImageJ>Process>Noise>Despeckle • ImageJ>Process>Binary>Watershed was used to automatically separate merged cell nuclei • ImageJ>Analyze>Analyze Particles was used to obtain final count of DAPI per image • Total number of DAPI-positive cells
Total number of O4+ cells per 20× image was manually counted using Adobe Photoshop: • All cell bodies of OPCs with underlying DAPI stain were counted as an O4+ cell • Total number of O4+ cells were recorded in Excel Spreadsheet O4+ cells in mixed brain cultures of wild type mice <P2 treated with compounds of the present disclosure or vehicle were quantified per condition (time point and concentration). The following formula was used to normalize the total cell counts within a compound as well as across compounds treated for the same duration (48h vs. 96h):
(number of O4+cell counts in Compound X/Average DAPI count for Compound X)*Total Average DAPI count across compounds of same Time Point
Values were plotted as Scatter Interval plots in Origin. Each data point represents a single image from which O4+ cell values were obtained. Data are presented as mean±S.E.
Images are at 20× magnification and represent 1-2 coverslips per group. Scale bar, 50 μm.

Structure (SMILES)	% Increase OPC proliferation [%]
CC(C)(CO)[C@@H](O)C(=O)NCCC(=O)NCCSC(=O)CCCN [Compound 370, (2R)—N-[2-([2-[(4-aminobutanoyl)sulfanyl]ethyl]carbamoyl)ethyl]-2,4-dihydroxy-3,3-dimethylbutanamide]	≥10
CC(C)(CO)[C@@H](O)C(=O)NCCC(=O)NCCSC(=O)CCC(=O)O [Compound 1, (R)-4-((2-(3-(2,4-dihydroxy-3,3-dimethylbutanamido)propanamido)ethyl)thio)-4-oxobutanoic acid]	≥25
C[C@@H](O)CC(=O)SCCNC(=O)CCNC(=O)[C@H](O)C(C)(C)CO [Compound 38, S-2-{3-[(R)-2,4-dihydroxy-3,3-dimethylbutyrylamino]propionylamino} ethyl (R)-3-hydroxybutanethioate]	≥25
COC(=O)CC(C(C)=O)C(=O)SCCNC(=O)CCNC(=O)[C@H](O)C(C)(C)CO (stereo partly drawn) [Compound 410]	≥25
CC(=O)SCCNC(=O)CCNC(=O)[C@H](O)C(C)(C)COC(=O)[C@@H](N)Cc1ccc(O)c(O)c1 [Compound 498, (3R)-3-[(2-[[2-(acetylsulfanyl)ethyl]carbamoyl]ethyl)carbamoyl]-3-hydroxy-2,2-dimethylpropyl (2S)-2-amino-3-(3,4-dihydroxyphenyl)propanoate]	≥25

Source: patent publication US20230107216A1, “PANTETHEINE DERIVATIVES AND USES THEREOF” (Comet Therapeutics, Inc., priority 2018, published 2023)
